The source of these data is patent US10251874B2, “Crystalline forms of a JAK inhibitor compound” (THERAVANCE BIOPHARMA R&D IP, LLC, priority 2017, dated 2019).

Test [1] deals with T1, JAK3 (Homo sapiens, UniProt P52333).
T1 construct: GST; purchased Life Technologies
T1 sequence (P52333 1-1124): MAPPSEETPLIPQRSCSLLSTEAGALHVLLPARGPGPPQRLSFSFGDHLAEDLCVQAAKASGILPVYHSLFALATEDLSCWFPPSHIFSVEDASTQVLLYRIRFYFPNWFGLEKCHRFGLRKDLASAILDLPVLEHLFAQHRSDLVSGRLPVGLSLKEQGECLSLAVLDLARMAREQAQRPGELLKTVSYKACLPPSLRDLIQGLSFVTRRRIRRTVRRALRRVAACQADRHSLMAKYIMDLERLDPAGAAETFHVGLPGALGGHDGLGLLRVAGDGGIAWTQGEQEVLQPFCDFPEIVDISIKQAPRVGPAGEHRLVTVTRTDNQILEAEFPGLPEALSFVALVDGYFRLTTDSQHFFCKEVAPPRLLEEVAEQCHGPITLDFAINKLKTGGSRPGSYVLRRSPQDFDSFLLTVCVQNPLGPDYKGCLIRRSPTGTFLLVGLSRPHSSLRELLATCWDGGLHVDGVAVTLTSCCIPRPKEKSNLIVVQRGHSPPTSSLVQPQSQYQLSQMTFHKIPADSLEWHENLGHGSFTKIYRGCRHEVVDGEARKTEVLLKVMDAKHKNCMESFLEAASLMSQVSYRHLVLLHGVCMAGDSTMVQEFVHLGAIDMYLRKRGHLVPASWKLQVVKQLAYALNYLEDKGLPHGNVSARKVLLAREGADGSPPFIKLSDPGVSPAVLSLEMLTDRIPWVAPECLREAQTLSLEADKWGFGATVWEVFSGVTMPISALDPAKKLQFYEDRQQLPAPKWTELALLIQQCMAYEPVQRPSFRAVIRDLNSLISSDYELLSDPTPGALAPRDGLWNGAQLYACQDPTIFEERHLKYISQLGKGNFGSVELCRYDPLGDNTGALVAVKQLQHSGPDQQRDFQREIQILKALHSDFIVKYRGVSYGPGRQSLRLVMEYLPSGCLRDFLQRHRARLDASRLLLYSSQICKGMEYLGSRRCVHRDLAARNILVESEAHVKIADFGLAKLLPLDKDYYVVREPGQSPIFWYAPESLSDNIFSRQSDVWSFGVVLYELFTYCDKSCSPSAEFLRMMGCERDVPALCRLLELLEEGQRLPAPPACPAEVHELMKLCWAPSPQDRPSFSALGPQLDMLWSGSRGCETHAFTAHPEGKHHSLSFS
The test is described as follows: Assay 1: LanthaScreen biochemical JAK kinase assay, JAK3. The settings on record: converted from pIC50 by Cheng-Prusoff; ATP at Km 1.6 μM; read-out: JAK 3 pKi (converted). The protocol: A panel of four LanthaScreen JAK biochemical assays (JAK1, 2, 3 and Tyk2) were carried in a common kinase reaction buffer (50 mM HEPES, pH 7.5, 0.01% Brij-35, 10 mM MgCl2, and 1 mM EGTA). Recombinant GST-tagged JAK enzymes and a GFP-tagged STAT1 peptide substrate were obtained from Life Technologies.
ATP was subsequently added to initiate the kinase reactions in 10 μL total volume, with 1% DMSO. […] Kinase reactions were allowed to proceed for 1 hour at ambient temperature before a 10 μL preparation of EDTA (10 mM final concentration) and Tb-anti-pSTAT1 (pTyr701) antibody (Life Technologies, 2 nM final concentration) in TR-FRET dilution buffer (Life Technologies) was added. […] Emission ratio signals (520 nm/495 nm) were recorded and utilized to calculate the percent inhibition values based on DMSO and background controls.
For dose-response analysis, percent inhibition data were plotted vs. compound concentrations, and IC50 values were determined from a 4-parameter robust fit model with the Prism software (GraphPad Software).
In general terms: TR-FRET usually uses a lanthanide donor and a delayed reading to cut background.

Test [2] has as its system IL-6 stimulated pSTAT3 in CD3+ T cells. The experiment in a line: Assay 6: Inhibition of IL-6 stimulated pSTAT3 in CD3+ T cells. The class given is cell-based. Particulars: T-cell; CD3+ T cells in human PBMCs, flow cytometry; read-out: pIC50, inhibition of IL-6 stimulated pSTAT3 (converted). An excerpt: A protocol analogous to that of Assay 5 was used to determine the potency of the test compound for inhibition of interleuken-6 (IL-6) stimulated STAT3 phosphorylation.
An Alexa Fluor 647 conjugated anti-pSTAT3 antibody (pY705, Clone 4/P, BD Biosciences) was used to detect STAT3 phosphorylation.
Background: In flow cytometry, cells or beads pass a laser one at a time.

For test [3], the system named is IL-13 induced pSTAT6 in lung tissue. The test is described as follows: Assay 9: Murine model of IL-13 induced pSTAT6 induction in lung tissue. The class given is in vivo, balb/c mice. Particulars: mouse, 0.5 mg/mL 50 μL oral aspiration; after IL-13 challenge (so in the source). The protocol: 11-13 is an important cytokine underlying the pathophysiology of asthma (Kudlacz et al. Eur. J. Pharmacol, 2008, 582,154-161). IL-13 binds to cell surface receptors activating members of the Janus family of kinases (JAK) which then phosphorylate STAT6 and subsequently activates further transcription pathways. In the described model, a dose of IL-13 was delivered locally into the lungs of mice to induce the phosphorylation of STAT6 (pSTAT6) which is then measured as the endpoint.
Adult balb/c mice from Harlan were used in the assay. On the day of study, animals were lightly anesthetized with isoflurane and administered either vehicle or test compound (0.5 mg/mL, 50 μL total volume over several breaths) via oral aspiration. Animals were placed in lateral recumbency post dose and monitored for full recovery from anesthesia before being returned to their home cage. Four hours later, animals were once again briefly anesthetized and challenged with either vehicle or IL-13 (0.03 μg total dose delivered, 50 μL total volume) via oral aspiration before being monitored for recovery from anesthesia and returned to their home cage. […] using an anti-pSTAT6 ELISA (rabbit mAb capture/coating antibody; mouse mAb detection/report antibody: anti-pSTAT6-pY641; secondary antibody: anti-mouse IgG-HRP) and analyzed for total drug concentration as described above in Assay 12. […]

For the compound `CCc1cc(O)c(F)cc1-c1ccc2c(-c3nc4c([nH]3)CCN(C3CCN(C)CC3)C4)n[nH]c2c1` [Compound 1, 5-ethyl-2-fluoro-4-(3-(5-(1-methylpiperidin-4-yl)-4,5,6,7-tetrahydro-1H-imidazo[4,5-c]pyridin-2-yl)-1H-indazol-6-yl)phenol], the Ki in test [1] is 0.0002 µM. The IC50 in test [2] was 0.0398 µM. Moreover, the “inhibition of STAT6 phosphorylation in lung” value in test [3] is listed as “about 60%”.
